Test results published in patent publication US20160000074A1, “HERBICIDAL COMPOSITION AND METHOD OF USE THEREOF” (SYNGENTA PARTICIPATIONS AG, priority 2013, published 2016).

Key:
Experiment in all cases: Turf selectivity evaluation, visual phytotoxicity, glasshouse pots
Format in all cases: in vivo
Conditions in all cases: visual evaluation 7, 14, 21, 28 DAA
[1] = tested on: Agrostis stolonifera (AGSST, Creeping Bentgrass, Pennlinks)
Description: (§1) Turf selectivity evaluations were performed on the most important cool-season turf varieties, across 4 application rates with two replications contained within a factorial design. Sarmentine was applied at 0, 1500, 3000, and 6000 g ai ha^−1 on Sep. 11, 2010 using a spray volume of 800 L ha^−1 with 0.2% V/V x-77 adjuvant. The solution was delivered with LU 90-02S Lechler nozzles at 2.58 bars with an application speed of 0.96 km hr^−1.
(§2) Plants were grown in 9 cm diameter pots using Les Barges soil, previously characterized as containing 25.4% clay; 7.1% loam, 67.5% sand, 7% CaCO3, 2.4% organic matter, and pH 7.5. Pots were fertilized with Oscarna Rasaflor at 100 g m-2 at seeding. Plants were grown throughout the experiment with day/night temperatures of 23° C./15° C. with relative humidity of between 50-60%.
(§3) Turf species (Table 1) were visually evaluated for symptoms of phytotoxicity (%) using the untreated control as a bench-mark for comparison at 7, 14, 21, and 28 days after application (DAA). Turfgrass species were mown at 13 DAA.

[2] = tested on: Festuca arundinacea (FESAR, Tall Fescue, Farandole)
Description: as §1, §2, §3

[3] = tested on: Lolium perenne (LOLPE, Perennial Ryegrass, Citation Fore)
Description: as §1, §2, §3

[4] = tested on: Poa annua var. Reptans (POAAN, Annual bluegrass, True Putt)
Description: as §1, §2, §3

[5] = tested on: Poa pratensis (POAPR, Kentucky Bluegrass, Midnight star)
Description: as §1, §2, §3

[6] = rate 1500 g ai ha^-1, grass x rate estimate
[7] = rate 3000 g ai ha^-1, grass x rate estimate
[8] = rate 6000 g ai ha^-1, grass x rate estimate

With `CCCCC/C=C/C=C/C(=O)N1CCCC1` [sarmentine, N-(2E,4E-Decadienoyl)pyrrolidine] the “Phyto-toxicity Estimate (% of Untreated)” value [1, 6] was 13.1 % of Untreated, the “Phyto-toxicity Estimate (% of Untreated)” value [1, 7] was 19.4 % of Untreated and the “Phyto-toxicity Estimate (% of Untreated)” value [1, 8] was 27.5 % of Untreated. For the same compound, the “Phyto-toxicity Estimate (% of Untreated)” value [2, 6] was 14.1 % of Untreated, the “Phyto-toxicity Estimate (% of Untreated)” value [2, 7] was 22.8 % of Untreated and the “Phyto-toxicity Estimate (% of Untreated)” value [2, 8] was 31.3 % of Untreated. The “Phyto-toxicity Estimate (% of Untreated)” value [3, 6] was 15.3 % of Untreated, the “Phyto-toxicity Estimate (% of Untreated)” value [3, 7] was 27.2 % of Untreated and the “Phyto-toxicity Estimate (% of Untreated)” value [3, 8] was 46.3 % of Untreated. For the same compound, the “Phyto-toxicity Estimate (% of Untreated)” value [4, 6] was 35.0 % of Untreated, the “Phyto-toxicity Estimate (% of Untreated)” value [4, 7] was 53.8 % of Untreated and the “Phyto-toxicity Estimate (% of Untreated)” value [4, 8] was 83.1 % of Untreated. For the same compound, the “Phyto-toxicity Estimate (% of Untreated)” value [5, 6] was 6.3 % of Untreated, the “Phyto-toxicity Estimate (% of Untreated)” value [5, 7] was 8.8 % of Untreated and the “Phyto-toxicity Estimate (% of Untreated)” value [5, 8] was 21.3 % of Untreated.
